According to ChEMBL document CHEMBL1133722 (J Med Chem, 2000):

Assays:
Assay type in all cases: cell-based, Cercopithecidae
[1] = biological target: Kappa-type opioid receptor (Homo sapiens, UniProt P41145, E297A); experiment: Binding affinity using [3H]diprenorphine as the radioligand against E297A mutant Opioid receptor kappa 1 in COS-7 cells
[2] = biological target: Kappa-type opioid receptor (Homo sapiens, UniProt P41145, E297K); experiment: Binding affinity using [3H]diprenorphine as the radioligand against E297K mutant Opioid receptor kappa 1 in COS-7 cells
[3] = biological target: T1, Kappa-type opioid receptor (Homo sapiens, UniProt P41145); experiment: Binding affinity using [3H]diprenorphine as the radioligand against wild-type Opioid receptor kappa 1 in COS-7 cells
Mu-type opioid receptor [4] = biological target: T2, Mu-type opioid receptor (Homo sapiens, UniProt P35372); experiment: Binding affinity using [3H]diprenorphine as the radioligand against wild-type Opioid receptor mu 1 in COS-7 cells
Mu-type opioid receptor [5] = biological target: T2, Mu-type opioid receptor; experiment: Binding affinity using [3H]diprenorphine as the radioligand against K303E Opioid receptor mu 1 in COS-7 cells
[6] = biological target: T1, Kappa-type opioid receptor; experiment: Binding affinity using [3H]diprenorphine as the radioligand against wild-type Opioid receptor kappa 1r in COS-7 cells

Chain of Kappa-type opioid receptor (Homo sapiens, UniProt P41145, E297A) (P41145 whole entry E297A): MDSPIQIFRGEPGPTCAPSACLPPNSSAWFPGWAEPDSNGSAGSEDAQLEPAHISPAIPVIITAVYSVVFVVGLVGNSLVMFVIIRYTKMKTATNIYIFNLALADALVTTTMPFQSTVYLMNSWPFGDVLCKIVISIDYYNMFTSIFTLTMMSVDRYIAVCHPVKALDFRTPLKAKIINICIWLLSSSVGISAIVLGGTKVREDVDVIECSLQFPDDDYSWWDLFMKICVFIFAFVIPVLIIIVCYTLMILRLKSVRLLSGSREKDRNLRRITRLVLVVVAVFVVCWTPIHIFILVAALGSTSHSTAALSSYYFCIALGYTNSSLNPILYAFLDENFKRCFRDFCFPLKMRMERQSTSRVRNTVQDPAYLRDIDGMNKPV
Chain of Kappa-type opioid receptor (Homo sapiens, UniProt P41145, E297K) (P41145 whole entry E297K): as the sequence (P41145 whole entry E297A) above, with A297K counted along it
T1 sequence (P41145 whole entry): as the sequence (P41145 whole entry E297A) above, with A297E counted along it
T2 sequence (P35372 whole entry): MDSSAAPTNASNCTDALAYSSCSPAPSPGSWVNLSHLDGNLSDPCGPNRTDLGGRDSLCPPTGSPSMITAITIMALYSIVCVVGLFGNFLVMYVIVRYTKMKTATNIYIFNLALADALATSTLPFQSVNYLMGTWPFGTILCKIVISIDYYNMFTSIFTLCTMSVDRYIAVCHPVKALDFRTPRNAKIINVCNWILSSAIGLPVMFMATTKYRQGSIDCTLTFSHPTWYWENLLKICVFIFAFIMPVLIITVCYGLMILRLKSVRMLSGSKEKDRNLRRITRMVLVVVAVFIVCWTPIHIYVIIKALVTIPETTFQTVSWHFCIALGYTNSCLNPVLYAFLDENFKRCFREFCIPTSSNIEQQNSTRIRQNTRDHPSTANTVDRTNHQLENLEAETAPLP

| SMILES | Ki [1] | Ki [2] | Ki [3] | Ki (Mu-type opioid receptor [4]) | Ki (Mu-type opioid receptor [5]) | Ki [6] |
| --- | --- | --- | --- | --- | --- | --- |
| CC(=O)N1CC[C@]23c4c5ccc(O)c4O[C@H]2c2[nH]c4c(c2C[C@@]3(O)[C@H]1C5)C[C@@]1(O)[C@H]2Cc3ccc(O)c5c3[C@@]1(CCN2CC1CC1)[C@H]4O5 | 104 nM | 104 nM | 23.6 nM | 102 nM | 42 nM | – |
| CN1CC[C@]23c4c5ccc(O)c4O[C@H]2c2[nH]c4c(c2C[C@@]3(O)[C@H]1C5)C[C@@]1(O)[C@H]2Cc3ccc(O)c5c3[C@@]1(CCN2C)[C@H]4O5 | > 1000 nM | > 1000 nM | 21.7 nM | > 1000 nM | 41.7 nM | – |
| CN1CC[C@]23c4c5ccc(O)c4O[C@H]2c2[nH]c4c(c2C[C@H]3[C@H]1C5)C[C@@]1(O)[C@H]2Cc3ccc(O)c5c3[C@@]1(CCN2CC1CC1)[C@H]4O5 | 39.6 nM | 39.9 nM | 0.32 nM | 40 nM | 0.16 nM | – |
| COc1ccc2c3c1O[C@H]1c4[nH]c5c(c4C[C@@]4(O)[C@@H](C2)N(CC2CC2)CC[C@]314)C[C@@]1(O)[C@H]2Cc3ccc(O)c4c3[C@@]1(CCN2CC1CC1)[C@H]5O4 | 17 nM | 28 nM | 0.39 nM | 276 nM | 2.7 nM | – |
| COc1ccc2c3c1O[C@H]1c4[nH]c5c(c4C[C@@]4(O)[C@@H](C2)N(CC2CC2)CC[C@]314)C[C@@]1(O)[C@H]2Cc3ccc(O)c4c3[C@@]1(CCN2C)[C@H]5O4 | > 1000 nM | > 1000 nM | 36.3 nM | 165 nM | 52 nM | – |
| N=C(N)N1CC[C@]23c4c5ccc(O)c4O[C@H]2c2[nH]c4c(c2C[C@@]3(O)[C@H]1C5)C[C@@]1(O)[C@H]2Cc3ccc(O)c5c3[C@@]1(CCN2CC1CC1)[C@H]4O5 | – | 189 nM | – | – | – | 0.57 nM |
